In BindingDB's records for doi:10.1016/j.bmcl.2005.12.040 (Celera, 2006) one finds Ki data, which are given here for five compounds.

Usually pKi stands for −log10 of the Ki, conventionally taken in molar units.

The experiment has as its target T1, Coagulation factor VII (Homo sapiens, UniProt P08709).
T1 sequence (P08709 whole entry): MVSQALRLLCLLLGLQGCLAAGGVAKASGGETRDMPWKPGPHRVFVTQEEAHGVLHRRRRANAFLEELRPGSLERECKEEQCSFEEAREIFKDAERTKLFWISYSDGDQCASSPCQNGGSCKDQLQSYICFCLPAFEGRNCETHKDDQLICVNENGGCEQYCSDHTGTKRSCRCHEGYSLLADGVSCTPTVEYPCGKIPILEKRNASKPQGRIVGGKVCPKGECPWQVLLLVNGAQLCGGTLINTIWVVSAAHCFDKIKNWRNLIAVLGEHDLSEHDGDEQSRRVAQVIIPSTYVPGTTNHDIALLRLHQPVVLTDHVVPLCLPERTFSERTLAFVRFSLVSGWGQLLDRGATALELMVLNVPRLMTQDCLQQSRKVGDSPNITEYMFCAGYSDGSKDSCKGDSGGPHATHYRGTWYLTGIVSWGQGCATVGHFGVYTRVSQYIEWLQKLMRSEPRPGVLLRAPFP
Nature of the experiment: Enzyme Inhibition Assay. The method, then: The enzyme reactions were initiated by the addition of substrate, and the color developed from the release of p-nitroanilide from each chromogenic substrate was monitored at 405 nm using a Thermomax kinetic plate reader (Molecular Devices). […] The apparent Ki values were then calculated according to the Cheng-Prusoff equation: Ki = IC50/1 + [S]/Km.

Structures are written as SMILES. pKi: −log10 of the molar value.

Take `N=C(N)c1ccc2nc(-c3cc(C(CC(=O)O)C(=O)O)cc(-c4ccc(CO)s4)c3O)[nH]c2c1` (stereo not given) [2-[3-(5-carbamimidoyl-1H-1,3-benzodiazol-2-yl)-4-hydroxy-5-[5-(hydroxymethyl)thiophen-2-yl]phenyl]butanedioic acid]: the negative-log Ki (pKi) is 6.89.

As for `N=C(N)c1ccc2nc(-c3cc(C(CC(=O)O)C(=O)O)cc(-c4ccc(Cl)s4)c3O)[nH]c2c1` (stereo not given) [2-[3-(5-carbamimidoyl-1H-1,3-benzodiazol-2-yl)-5-(5-chlorothiophen-2-yl)-4-hydroxyphenyl]butanedioic acid], the negative logarithm of the Ki (pKi) is 6.96.

In turn, `CSc1ccccc1-c1cc(C(CC(=O)O)C(=O)O)cc(-c2nc3ccc(C(=N)N)cc3[nH]2)c1O` (stereo not given) [2-[3-(5-carbamimidoyl-1H-1,3-benzodiazol-2-yl)-4-hydroxy-5-[2-(methylsulfanyl)phenyl]phenyl]butanedioic acid] gave a pKi of 7.19.

For the compound `CC(=O)N(c1cccc(C)c1)c1cc(C(CC(=O)O)C(=O)O)cc(-c2nc3ccc(C(=N)N)cc3[nH]2)c1O` (stereo not given) [2-[3-(5-carbamimidoyl-1H-1,3-benzodiazol-2-yl)-4-hydroxy-5-[N-(3-methylphenyl)acetamido]phenyl]butanedioic acid], the pKi is 7.27.

In the case of `N=C(N)c1ccc2nc(-c3cc(C(CC(=O)O)C(=O)O)cc(-c4cccc(C5CCOC(=O)O5)c4)c3O)[nH]c2c1` (stereo not given) [2-[3-(5-carbamimidoyl-1H-1,3-benzodiazol-2-yl)-4-hydroxy-5-[3-(2-oxo-1,3-dioxan-4-yl)phenyl]phenyl]butanedioic acid], the pKi is 6.55.
